Measurements as given in patent publication US12415794B2 (Edgewise Therapeutics, Inc., priority 2018, dated 2025).

Key:
[1] = target: skeletal myofibrils (myosin ATPase); assay: Skeletal Myofibril ATPase Assay; type: biochemical; conditions: Table 4A
Procedure: FIG. 7 depicts the buffer preparation procedures of Buffer A and Buffer B for the skeletal myofibril ATPase assay described in Example 12. Buffers were stored on ice until use.
Example 12: Skeletal Myofibril ATPase Assay
(§1) Overview: Myosin ATPase activity is assessed by using a coupled reaction system, in which ADP generated by the myosin ATPase function is coupled to the disappearance of NADH through the pyruvate kinase/lactate dehydrogenase (PK-LDH) system. ATPase activity produces ADP, which is used as a substrate for PK to produce pyruvate and regenerate ATP. The pyruvate is then used as a substrate by LDH to oxidize NADH to NAD+. The rate of the reaction is monitored through the time-dependent disappearance of NADH using absorbance at 340 nm. Inhibition of ATPase activity by the assayed compounds is indicated by a reduced rate of NADH loss, relative to vehicle-treated controls, over the experimental time window. To assess the selectivity of the assayed compounds for skeletal myofibrils, the compounds are counter-screened in cardiac myofibrils.
Materials: The following stock solutions and reagents were used in the Skeletal Myofibril ATPase Assay:
Stock Solutions of pCa buffer. Combine PIPES, CaCl2, and EGTA solutions with 70 mL of water. Adjust pH to 7.0 and bring final volume to 100 mL.
Skeletal Myofibril ATPase Assay Procedure: BSA, ATP, NADH, PEP, and DTT solutions were thawed at room temperature, then transferred to ice. Pellet-frozen myofibrils were transferred with approximately twice the required volume into a sufficiently large tube and capped. Myofibrils were thawed by rolling in a water bath for approximately 15 min at room temperature and cooled on ice. Buffers A and B were prepared by adjusting volumes as necessary for required number of wells and stored on ice. 0.5 μL of the compounds to be assayed were added into wells. 25 μL of Buffer A was dispensed into the wells, followed by 25 μL of Buffer B. The wells were measured for absorbance at 340 nm, using a kinetic protocol in which the wells are read every 1.5-2 min for 45 min. The slope of the data was approximated by subtracting the minimum absorbance value from the maximum value for each well. This was accomplished either in the SoftMax Pro software or in a spreadsheet program such as Excel. Using GraphPad Prism 8.0, the data was normalized by assigning a value of 100% to the 1% DMSO vehicle wells. Typically, a normalized 0% value was simply assigned to a (Max−Min) value of 0. The normalized data was fit to a Four Parameter Logistic sigmoidal equation, constraining the bottom to be 0 or greater. Compounds of Table 1, 2, and 3 were tested and results of the assay appear in Tables 4a-4c. A=IC50 is less than or equal to 10 μM; B=IC50 is greater than 10 μM and less than 100 μM; C=IC50 is greater than 100 μM.

[2] = target: T1, cardiac myofibrils (myosin ATPase); assay: Cardiac Myofibril ATPase Assay (counter screen); type: biochemical; conditions: myofibrils 1.0 mg/mL, KCl omitted
T1 construct: frozen myofibril pellets obtained from cardiac tissue; from tissue
Procedure: as §1
Example 13: Cardiac Myofibril ATPase Assay
Following example 11, the counter screen was done using frozen myofibril pellets obtained from cardiac tissue. The assay was done in the same manner as above, with the following notable exceptions: the final well concentration of myofibrils was 1.0 mg/mL and KCl was omitted from the recipe.
Compounds of Table 1 to 3 were tested, and results of the assays appear in Tables 5a-5c herein. A=IC50 is less than or equal to 10 μM; B=IC50 is greater than 10 μM and less than 100 μM; C=IC50 is greater than 100 μM; and […].

T1 sequence (P12883 whole entry): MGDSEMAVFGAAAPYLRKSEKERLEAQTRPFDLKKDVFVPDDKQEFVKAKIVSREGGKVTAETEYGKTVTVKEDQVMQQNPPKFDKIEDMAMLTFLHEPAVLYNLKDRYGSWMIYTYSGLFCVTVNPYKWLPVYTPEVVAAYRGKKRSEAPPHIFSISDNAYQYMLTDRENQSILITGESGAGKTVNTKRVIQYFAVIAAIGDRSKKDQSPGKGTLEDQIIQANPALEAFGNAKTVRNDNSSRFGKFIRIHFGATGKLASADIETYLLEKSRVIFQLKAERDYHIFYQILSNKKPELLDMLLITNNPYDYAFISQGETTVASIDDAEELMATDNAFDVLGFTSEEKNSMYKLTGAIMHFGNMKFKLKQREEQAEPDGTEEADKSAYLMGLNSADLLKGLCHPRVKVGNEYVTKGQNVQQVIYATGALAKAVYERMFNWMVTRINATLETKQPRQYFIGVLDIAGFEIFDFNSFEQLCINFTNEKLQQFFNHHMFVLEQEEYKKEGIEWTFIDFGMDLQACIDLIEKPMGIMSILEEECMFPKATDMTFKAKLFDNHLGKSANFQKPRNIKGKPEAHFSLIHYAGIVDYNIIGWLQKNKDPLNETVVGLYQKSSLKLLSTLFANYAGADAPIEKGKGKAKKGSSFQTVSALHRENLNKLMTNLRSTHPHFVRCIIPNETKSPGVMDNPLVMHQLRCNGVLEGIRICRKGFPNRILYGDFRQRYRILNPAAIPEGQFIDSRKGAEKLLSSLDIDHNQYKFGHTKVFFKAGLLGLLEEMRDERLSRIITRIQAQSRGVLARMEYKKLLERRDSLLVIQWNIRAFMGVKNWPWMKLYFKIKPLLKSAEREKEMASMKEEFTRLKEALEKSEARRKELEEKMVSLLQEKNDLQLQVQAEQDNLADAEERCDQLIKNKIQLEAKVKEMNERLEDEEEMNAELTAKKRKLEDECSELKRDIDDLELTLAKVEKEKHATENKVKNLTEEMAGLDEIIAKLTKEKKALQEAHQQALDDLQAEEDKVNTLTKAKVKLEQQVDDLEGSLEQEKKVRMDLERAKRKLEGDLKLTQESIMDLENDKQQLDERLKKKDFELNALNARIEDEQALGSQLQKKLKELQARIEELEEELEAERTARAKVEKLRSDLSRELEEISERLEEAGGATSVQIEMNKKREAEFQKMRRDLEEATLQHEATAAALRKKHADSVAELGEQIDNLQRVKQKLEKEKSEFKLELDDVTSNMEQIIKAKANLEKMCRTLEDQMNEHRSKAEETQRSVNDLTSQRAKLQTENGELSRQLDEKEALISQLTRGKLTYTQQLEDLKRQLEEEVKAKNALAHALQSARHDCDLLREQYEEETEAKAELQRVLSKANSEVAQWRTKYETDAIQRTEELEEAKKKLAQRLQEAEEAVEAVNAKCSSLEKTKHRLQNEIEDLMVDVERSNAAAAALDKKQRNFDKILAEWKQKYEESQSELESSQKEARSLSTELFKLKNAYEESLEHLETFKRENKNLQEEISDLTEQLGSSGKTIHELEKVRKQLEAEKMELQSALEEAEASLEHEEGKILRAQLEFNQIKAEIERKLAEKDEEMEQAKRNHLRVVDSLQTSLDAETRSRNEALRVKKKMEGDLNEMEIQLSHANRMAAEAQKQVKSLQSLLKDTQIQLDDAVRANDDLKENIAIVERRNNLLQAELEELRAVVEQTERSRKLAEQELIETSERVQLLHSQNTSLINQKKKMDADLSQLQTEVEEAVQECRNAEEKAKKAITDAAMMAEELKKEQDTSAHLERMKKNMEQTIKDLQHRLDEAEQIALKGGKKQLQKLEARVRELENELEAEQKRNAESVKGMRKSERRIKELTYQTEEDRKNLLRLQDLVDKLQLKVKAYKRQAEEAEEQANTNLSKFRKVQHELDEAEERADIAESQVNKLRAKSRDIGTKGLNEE
T1 sequence (P08590 whole entry partner): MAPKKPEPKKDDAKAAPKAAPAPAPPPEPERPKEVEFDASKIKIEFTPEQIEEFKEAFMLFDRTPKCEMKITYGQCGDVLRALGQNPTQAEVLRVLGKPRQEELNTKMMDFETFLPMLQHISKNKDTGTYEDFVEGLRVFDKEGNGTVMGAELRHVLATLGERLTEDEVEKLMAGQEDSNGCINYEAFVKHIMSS
T1 sequence (P10916 whole entry partner): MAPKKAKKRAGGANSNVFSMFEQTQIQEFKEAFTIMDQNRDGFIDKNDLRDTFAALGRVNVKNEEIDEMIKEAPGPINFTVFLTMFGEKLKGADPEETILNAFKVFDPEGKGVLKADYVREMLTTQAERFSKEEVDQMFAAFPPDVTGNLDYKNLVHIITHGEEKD

| SMILES | IC50 ([2]; Table 5C) [µM] | further results |
| --- | --- | --- |
| CCNC(=O)Cn1nc(-c2cnc(OCCOC(F)(F)F)nc2)ccc1=O [Compound I-49, N-ethyl-2-(6-oxo-3-(2-(2-(trifluoromethoxy)ethoxy)pyrimidin-5-yl)pyridazin-1(6H)-yl)acetamide] | – | IC50 [1]: 10 to 100 µM |
| COc1ccc(-c2ccc(=O)n(CC(=O)N3CCC(C(N)=O)CC3)n2)cc1 [IIIc-11, 1-(2-(3-(4-methoxyphenyl)-6-oxopyridazin-1(6H)-yl)acetyl)piperidine-4-carboxamide] | > 100 | – |
| O=C(Cn1nc(-c2ccc(OC(F)(F)F)nc2)ccc1=O)NCc1ccccc1Cl [Compound I-3, N-(2-chlorobenzyl)-2-(6-oxo-3-(6-(trifluoromethoxy)pyridin-3-yl)pyridazin-1(6H)-yl)acetamide] | – | IC50 ([2]; Table 5A): > 100 µM |
| CCNC(=O)Cn1nc(-c2cnc(OC(F)F)cc2F)ccc1=O [Compound I-80, 2-(3-(6-(difluoromethoxy)-4-fluoropyridin-3-yl)-6-oxopyridazin-1(6H)-yl)-N-ethylacetamide] | – | IC50 ([2]; Table 5A): > 100 µM |
| O=C(Cn1nc(-c2ccc(Cl)cc2)ccc1=O)NC1CC1 [IIIc-36, 2-(3-(4-chlorophenyl)-6-oxopyridazin-1(6H)-yl)-N-cyclopropylacetamide] | > 100 | – |
| CC(C)NC(=O)Cn1nc(-c2ccc(Cl)cc2)ccc1=O [IIIc-15, 2-(3-(4-chlorophenyl)-6-oxopyridazin-1(6H)-yl)-N-isopropylacetamide] | > 100 | – |
| O=C(Cn1nc(-c2ccc(F)cc2)ccc1=O)Nc1ccccc1F [IIIc-45, N-(2-fluorophenyl)-2-(3-(4-fluorophenyl)-6-oxopyridazin-1(6H)-yl)acetamide] | > 100 | – |
| O=C(Cn1nc(-c2ccc(F)cc2)ccc1=O)N1CCCC1 [IIIc-46, 6-(4-fluorophenyl)-2-(2-oxo-2-(pyrrolidin-1-yl)ethyl)pyridazin-3(2H)-one] | > 100 | – |
| CCNC(=O)Cn1nc(-c2ccc(N3CC(COC(F)(F)F)C3)nc2)ccc1=O [Compound I-40, N-ethyl-2-(6-oxo-3-(6-(3-((trifluoromethoxy)methyl)azetidin-1-yl)pyridin-3-yl)pyridazin-1(6H)-yl)acetamide] | – | IC50 [1]: 10 to 100 µM |
| O=C(Cn1nc(-c2ccc(Cl)cc2)ccc1=O)NCc1ccccc1Cl [IIIc-14, N-(2-chlorobenzyl)-2-(3-(4-chlorophenyl)-6-oxopyridazin-1(6H)-yl)acetamide] | > 100 | – |
| COc1ccc(-c2ccc(=O)n(CC(=O)N3CCCC3)n2)cc1 [IIIc-10, 6-(4-methoxyphenyl)-2-(2-oxo-2-(pyrrolidin-1-yl)ethyl)pyridazin-3(2H)-one] | > 100 | – |
| CCNC(=O)Cn1nc(-c2ccc(OCC3(F)COC3)cc2)ccc1=O [IIIa-27, N-ethyl-2-(3-(4-((3-fluorooxetan-3-yl)methoxy)phenyl)-6-oxopyridazin-yl)acetamide] | > 100 | – |
| O=C(Cn1nc(-c2ccc(Cl)cc2)ccc1=O)Nc1ccc2cc[nH]c2c1 [IIIc-21, 2-(3-(4-chlorophenyl)-6-oxopyridazin-1(6H)-yl)-N-(1H-indol-6-yl)acetamide] | > 100 | – |
| CCNC(=O)Cn1nc(-c2ccc(NC34CCC(CC3)CC4)nc2)ccc1=O [Compound I-41, 2-(3-(6-(bicyclo[2.2.2]octan-1-ylamino)pyridin-3-yl)-6-oxopyridazin-1(6H)-yl)-N-ethylacetamide] | – | IC50 [1]: 10 to 100 µM |
| CCNC(=O)Cn1nc(-c2ccc(NC)nc2)ccc1=O [Compound I-47, N-ethyl-2-(3-(6-(methylamino)pyridin-3-yl)-6-oxopyridazin-1(6H)-yl)acetamide] | – | IC50 [1]: < 10 µM |
| CC(C)(CNC(=O)Cn1nc(-c2ccccc2)ccc1=O)c1ccccc1F [IIIc-61, N-(2-(2-fluorophenyl)-2-methylpropyl)-2-(6-oxo-3-phenylpyridazin-1(6H)-yl)acetamide] | > 100 | – |
| O=C(Cn1nc(-c2ccc(Cl)cc2)ccc1=O)NC1CCCC1 [IIIc-37, 2-(3-(4-chlorophenyl)-6-oxopyridazin-1(6H)-yl)-N-cyclopentylacetamide] | > 100 | – |

| SMILES | IC50 ([2]; Table 5C) [µM] | further results |
| --- | --- | --- |
| CC[C@H](C)NC(=O)Cn1nc(-c2ccc(OC(F)F)nc2)ccc1=O [Compound I-67, (S)-N-(sec-butyl)-2-(3-(6-(difluoromethoxy)pyridin-3-yl)-6-oxopyridazin-1(6H)-yl)acetamide] | – | IC50 [1]: < 10 µM |
| O=C(Cn1nc(-c2ccc(Cl)cc2)ccc1=O)NCc1cccc(Cl)c1 [IIIc-34, N-(3-chlorobenzyl)-2-(3-(4-chlorophenyl)-6-oxopyridazin-1(6H)-yl)acetamide] | > 100 | – |
| O=C(Cn1nc(-c2ccc(Br)cc2)ccc1=O)NC1CCCC1 [IIIc-41, 2-(3-(4-bromophenyl)-6-oxopyridazin-1(6H)-yl)-N-cyclopentylacetamide] | > 100 | – |
| O=C(Cn1nc(-c2ccc(Br)cc2)ccc1=O)NC1CCCCC1 [IIIc-42, 2-(3-(4-bromophenyl)-6-oxopyridazin-1(6H)-yl)-N-cyclohexylacetamide] | > 100 | – |
| CCOc1ccc(-c2ccc(=O)n(CC(=O)N3CCCc4ccccc43)n2)cc1 [IIIc-8, 2-(2-(3,4-dihydroquinolin-1(2H)-yl)-2-oxoethyl)-6-(4-ethoxyphenyl)pyridazin-3(2H)-one] | > 100 | – |
| COc1ccc(Cl)cc1NC(=O)Cn1nc(-c2ccc(Cl)cc2)ccc1=O [IIIc-26, N-(5-chloro-2-methoxyphenyl)-2-(3-(4-chlorophenyl)-6-oxopyridazin-1(6H)-yl)acetamide] | > 100 | – |
| Cc1cccnc1NC(=O)Cn1nc(-c2ccc(Cl)cc2)ccc1=O [IIIc-24, 2-(3-(4-chlorophenyl)-6-oxopyridazin-1(6H)-yl)-N-(3-methylpyridin-2-yl)acetamide] | > 100 | – |
| CCNC(=O)Cn1nc(-c2ccc(N3C[C@@H]4COCC3CO4)nc2)ccc1=O [Compound I-81, 2-(3-(6-((5R)-3,6-dioxa-8-azabicyclo[3.2.2]nonan-8-yl)pyridin-3-yl)-6-oxopyridazin-1(6H)-yl)-N-ethylacetamide] | – | IC50 ([2]; Table 5A): > 100 µM |
| O=C(Cn1nc(-c2ccccc2)ccc1=O)NCCN1CCc2ccccc21 [IIIc-60, N-(2-(indolin-1-yl)ethyl)-2-(6-oxo-3-phenylpyridazin-1(6H)-yl)acetamide] | > 100 | – |
| COc1ccc(-c2ccc(=O)n(CC(=O)NCC(C)C)n2)c(F)c1 [IIIb-42, 2-(3-(2-fluoro-4-methoxyphenyl)-6-oxopyridazin-1(6H)-yl)-N-isobutylacetamide] | > 100 | – |
| CC[C@H](C)NC(=O)Cn1nc(-c2ccc(OC(F)F)nc2)ccc1=O [Compound I-9, (S)-N-(sec-butyl)-2-(3-(6-(difluoromethoxy)pyridin-3-yl)-6-oxopyridazin-1(6H)-yl)acetamide] | – | IC50 ([2]; Table 5A): > 100 µM |
| COc1ccc(OC)c(NC(=O)Cn2nc(-c3ccc(Cl)cc3)ccc2=O)c1 [IIIc-29, 2-(3-(4-chlorophenyl)-6-oxopyridazin-1(6H)-yl)-N-(2,5-dimethoxyphenyl)acetamide] | > 100 | – |
| COc1ccc(-c2ccc(=O)n(CC(=O)N3CCCC3)n2)cc1OC [IIIc-9, 6-(3,4-dimethoxyphenyl)-2-(2-oxo-2-(pyrrolidin-1-yl)ethyl)pyridazin-3(2H)-one] | > 100 | – |
| O=C(Cn1nc(-c2ccc(F)cc2)ccc1=O)NCc1cccc(F)c1 [IIIc-43, N-(3-fluorobenzyl)-2-(3-(4-fluorophenyl)-6-oxopyridazin-1(6H)-yl)acetamide] | > 100 | – |
| COc1ccc(NC(=O)Cn2nc(-c3ccc(Cl)cc3)ccc2=O)c(OC)c1 [IIIc-25, 2-(3-(4-chlorophenyl)-6-oxopyridazin-1(6H)-yl)-N-(2,4-dimethoxyphenyl)acetamide] | > 100 | – |
| O=C(Cn1nc(-c2ccccc2)ccc1=O)N(C1=CCCCC1)C1CC1 [IIIc-59, N-(cyclohex-1-en-1-yl)-N-cyclopropyl-2-(6-oxo-3-phenylpyridazin-1(6H)-yl)acetamide] | > 100 | – |
| O=C(Cn1nc(-c2ccc(Cl)cc2)ccc1=O)NC1CCCCC1 [IIIc-39, 2-(3-(4-chlorophenyl)-6-oxopyridazin-1(6H)-yl)-N-cyclohexylacetamide] | > 100 | – |
